Values quoted from earlier work, collected in US20100192311A1, “METHOD FOR PERFUMING FABRICS” (priority 2009, published 2010).
Structures can show the parent of a compound that is named as a salt.

Legend:
[1] = in water
[2] = tested on: typical Gram negative and positive bacteria, fungi and yeasts; conditions: level from about 0.001% to about 0.5% by weight of the usage composition

SMILES | water solubility [1] | effective against typical Gram negative and positive bacteria, fungi and yeasts [2]
CC1(C)C(=O)N(CO)C(=O)N1CO [DMDM hydantoin, 1,3-bis(hydroxymethyl)-5,5-dimethyl-2,4-imidazolidinedione] | more than 50% | –
O=[N+]([O-])C1(Br)COCOC1 [Bronidox L, 5-bromo-5-nitro-1,3-dioxane] | about 0.46% | –
[Na+].[O-][n+]1ccccc1[S-] [sodium pyrithione] | about 50% | –
Cn1sc2c(c1=O)CCC2 [Promexal, 2-methyl-4,5-trimethylene-4-isothiazolin-3-one] | – | effective
OCc1ccccc1 [benzyl alcohol] | about 4% | –
OCCOc1ccccc1 [2-phenoxyethanol] | about 2.67% | –
CC(C)(O)C(Cl)(Cl)Cl [chlorobutanol, 1,1,1-Trichloro-2-methylpropan-2-ol] | about 0.8% | –
OCCc1ccccc1 [Phenyl Ethyl Alcohol, 2-phenylethanol] | about 2% | –
[H]/N=C(\N/C(=N/[H])NCCCCCCNC(=N)NC(=N)Nc1ccc(Cl)cc1)Nc1ccc(Cl)cc1 [chlorhexidine digluconate salt, 1,1′-hexamethylene bis(5-(p-chlorophenyl)biguanide), reference compound] | about 70% | –
O=c1[nH]sc2ccccc12 [Proxel, 1,2-benzisothiazolin-3-one] | – | effective
[H]/N=C(\N/C(=N/[H])NCCCCCCNC(=N)NC(=N)Nc1ccc(Cl)cc1)Nc1ccc(Cl)cc1 [chlorhexidine diacetate salt, 1,1′-hexamethylene bis(5-(p-chlorophenyl)biguanide), reference compound] | about 1.8% | –
